The source of these data is patent US20260191817A1, “FIBROBLAST MODULATORS IN STROMA-RICH TUMORS” (UNIVERSITEIT GENT, priority 2022, published 2026).

The test system of experiment [1] is human invasive MCF-7/6 mammary carcinoma cells. As to the kind of experiment: Chick heart invasion (CHI) assay with MCF-7/6 aggregates. It counts as cell-based. The conditions noted are these: MCF7/6, 192 h, lowest concentration at which an anti-invasive effect (histological grade I or II) was observed, 8 days, read-out: Lowest active concentration. How it is done:
Chick heart invasion assays were performed as described earlier (Bracke et al. 2014). Precultured heart fragments of 9-day-old chicken embryos were confronted with MCF-7/6 aggregates on top of a semi-solid agar at 37° C. overnight, after which the confronting pairs were cultured in suspension for 8 days at 37° C., 10% CO2 in presence or absence of a test compound (in duplo). This procedure can also be performed with aggregates of 4T1-Luc cells, for which the suspension culture of the confronting pairs is performed for 3.5 days. All compounds were evaluated at 1 μM and 100 nM; depending on the outcome higher or lower concentrations were subsequently evaluated. Upon fixation in Bouin-Hollande, the cultures were dehydrated and embedded in paraffin. Sections of the confrontation cultures were stained with hematoxylin-eosin are blinded and scored by a trained person (Bracke et al., 2014).
In the chick heart invasion assay cancer cells are confronted with a fragment of normal tissue, so as not to neglect the contribution of the host tissue in the micro-ecosystem that governs tumor behavior. As such, precultured heart tissue fragments (PHFs), dissected from 9-day-old chicken embryos, may be confronted with aggregates of human invasive MCF-7/6 mammary carcinoma cells or other cells in the presence of a certain concentration of a test compound. After eight days for MCF-7/6, or another period depending on the cell type, the interaction between the cancer cells and the PHF is evaluated histologically and classified along a 5-grades subjective scale (Bracke et al. 2014). Grades III and IV are typical for invasion, while grades 0, I and II correspond to absence of invasion. Compounds that inhibit invasion of confronting cancer cells i.e. from III/IV to 0/I/II, are determined as anti-invasive. Possible alternative assays generally known in the art are the type I collagen invasion assay, wound healing assay and the matrigel invasion assay.
The chick heart invasion (CHI) assay is a phenotypic assay that confronts precultured heart tissue fragments (PHFs, ‘normal tissue’), obtained from 9-day-old chicken embryos, with aggregates of human invasive MCF-7/6 mammary carcinoma cells (Bracke et al. 2014). In the control situation, the MCF-7/6 cells encircle, invade and destroy the PHF over an 8-day period. Invasion in this assay is defined as the progressive occupation and destruction of the PHF by the MCF-7/6 cells. Three-dimensional reconstruction of this interaction is obtained by microscopic analysis of all consecutive histological sections of the culture. The read-out is an invasion score according to a 5-grades histological scale.
The CHI closely reproduces the temporal, spatial and histological invasion patterns in man. The co-culture set-up probes for effects on both tumor cells and host tissue, and thus interrogates potential pharmacological targets in either interaction partner. Its use of histological evaluation allows discerning anti-invasive action from cytotoxicity or other effects.
We have submitted flavones B1-B4, flavanones B5-B8 and the intermediate 2′-hydroxychalcones A9, All and A12 to the chick heart invasion assay using MCF-7/6 aggregates. All compounds were evaluated at 1 μM and 100 nM; depending on the outcome higher or lower concentrations were subsequently evaluated. […] This table also includes CHI data on chalcones A1, A2 and A5.

A further experiment concerns 13B2 hTERT breast CAFs. As to the kind of experiment: AFM spheroid stiffness, 13B2 hTERT breast CAFs. The conditions noted are these: 48 h during spheroid formation; for Young's modulus / spheroid stiffness: 1 μM; for spheroid stiffness: 10 μM. It counts as cell-based, human. An excerpt: (§1) It is well established that an increased tumor and ECM stiffness is associated with a negative prognosis as it promotes tumor growth, progression, therapy resistance, immunosuppression and metastasis. Stiffness is chiefly regulated by the action of the CAFs in the TME. Stiffness modulation is, therefore, a fitting read-out of activity in a screen for CAF modulators. To assess stiffness modulation, the stiffness of spheroids of CAF cells treated with test compounds was interrogated using atomic force microscopy (AFM) indentation and compared with untreated cells. AFM measurement of the stiffness (elasticity) of cells and spheroids is a technique well-known to those skilled in the art. AFM measures the force required to create a given deflection, this read-out is also known as the Young's modulus. AFM is widely used in biology and cancer research: altered physicochemical properties of live cells serve as a read-out of altered complex physiological processes.
(§2) U-shaped, 384-well ULA plates (cat. no. MS-9384UZ, S-bio) were seeded with a suspension of cell-specific culture media with cells. Cells were allowed to form spheroids for an appropriate time under treatment conditions before use in experiments. Cell culture dishes (cat. no. 734-2814, VWR) were filled with collagen gel and placed at 37° C. for an appropriate time to allow solidification. For each condition, spheroids were pooled in one cell culture dish. The medium was removed (stored at 37° C.) to promote attachment of the bottom of each spheroid to the collagen gel. The cell culture dishes were incubated at 37° C. After the incubation period, the stored medium was carefully (prevent detachment of spheroids) added to the dishes.
(§3) Mechanical measurements were performed using an atomic force microscope. To indent the spheroids an in-house made colloidal probe was used. Force curves were collected using an appropriate setpoint and probe speed (depending on the stiffness of the spheroids). On each spheroid multiple force curves were collected. Collected curves were then processed using the JPK DP software. Young's modulus was extracted from the force curves. All experiments were performed in biological triplicate.
(§4) To generate 3D cultures mimicking the complexity and pathophysiology of in vivo tumors, spheroids were used (cfr. point 4). Spheroids are considered to better simulate cellular heterogeneity, nutrient and oxygen gradients, cell-cell interactions, cell-matrix interactions, gene expression profiles, stromal interactions, therapeutic responses, multicellular resistance, drug penetration and anti-apoptotic signaling.

A further experiment concerns CAF03 glioblastoma CAFs. Kind of experiment: AFM spheroid stiffness, CAF03 glioblastoma CAFs. The conditions noted are these: 10 μM, 48 h. The class given is cell-based.
Source text: as §1, §2, §3, §4

In experiment [2] the test system is HCA2 hTERT dermal fibroblasts. As to the kind of experiment: AFM spheroid stiffness, HCA2 hTERT dermal fibroblasts. The class given is cell-based. The conditions noted are these: HCA2 hTERT normal dermal fibroblasts; 10 μM, 48 h. How it is done:
(§5) Selectivity for CAFs with respect to normal fibroblasts and other cell types was assessed by performing an identical experiment with normal fibroblasts and other cell types, where compounds were considered selective for CAFs if they only modulate CAF stiffness.
as §2, §3, §4

Experiment [3] concerns MCF-7/6 breast cancer cells. As to the kind of experiment: AFM spheroid stiffness, MCF-7/6 breast cancer cells. The conditions noted are these: 10 μM, 48 h. It counts as cell-based, human. As to the method: as §5, §2, §3, §4
For experiment [4], the system named is primary glioblastoma (GBM) cells. As to the kind of experiment: AFM spheroid stiffness, primary glioblastoma cells. The conditions noted are these: 10 μM, 48 h. The class given is cell-based, human. As to the method:
as §5, §2, §3, §4

The subject of experiment [5] is primary human atrial fibroblasts. As to the kind of experiment: AFM spheroid stiffness, primary human atrial fibroblasts. The conditions noted are these: 10 μM, 48 h. It counts as cell-based. As to the method: as §5, §2, §3, §4

As to `COc1ccc(C(=O)/C=C/c2ccc(Cl)cc2)cc1` [Compound A2, 3-(4-Chlorophenyl)-1-(4-methoxyphenyl)prop2-en-1-one], the minimal effective concentration in experiment [1] worked out at 0.01 µM.

In the case of `COc1ccc(C(=O)/C=C/c2ccc(F)cc2)cc1` [Compound A5, 3-(4-Fluorophenyl)-1-(4-methoxyphenyl)prop2-en-1-one], the minimal effective concentration in experiment [1] stood at 1 µM.

With `O=C(/C=C/c1ccccc1)c1ccccc1` [Compound A8, 1,3-Diphenvlprop2-en-1-one], in the experiment on 13B2 hTERT breast CAFs, the “Young's modulus / spheroid stiffness” value is recorded as “did not have an effect”.

In the case of `COc1cc(O)c(C(=O)/C=C/c2ccc(F)cc2)c(OC)c1OC` [Compound A10, 3-(4-Fluorophenyl)-1-(6-hydroxy-2,3,4-trimethoxyphenyl)prop-2-en-1-one], the minimal effective concentration in experiment [1] amounted to 0.01 µM.

On to `COc1ccc(C(=O)/C=C/c2ccc(F)cc2)c(O)c1` [Compound A12, 3-(4-fluorophenyl)-1-(2-hydroxy-4-methoxyphenyl)prop-2-en-1-one], for which, in experiment [1], the minimal effective concentration came out at 1 µM.

As to `COc1ccc(C(=O)/C=C/c2ccc(Cl)cc2)c(O)c1` [Compound A13, 3-(4-chlorophenyl)-1-(2-hydroxy-4-methoxyphenyl)prop-2-en-1-one], in experiment [1], the minimal effective concentration came to 0.1 µM.

Regarding `COc1ccc(C(=O)/C=C/c2ccc(F)cc2)cc1C(F)(F)F` [Compound A14, 3-(4-Fluorophenyl)-1-(4-methoxy-3-(trifluoromethyl)phenyl)prop-2-en-1-one], the “Young's modulus / spheroid stiffness” value in the experiment with 13B2 hTERT breast CAFs was “decreased”.

Regarding `COc1cc2c(=O)cc(-c3ccc(F)cc3)oc2c(OC)c1OC` [Compound B2, 2-(4-Fluorophenyl)-6,7,8-trimethoxy-4H-chromen-4-one], the minimal effective concentration in experiment [1] was found to be 10 µM.

As to `COc1ccc2c(=O)cc(-c3ccc(F)cc3)oc2c1` [Compound B3, 2-(4-Fluorophenyl)-7-methoxy-4H-chromen-4-one], in experiment [1], the minimal effective concentration was found to be 0.01 µM.

For the compound `COc1ccc2c(=O)cc(-c3ccc(Cl)cc3)oc2c1` [Compound B4, 2-(4-Chlorophenyl)-7-methoxy-4H-chromen-4-one], the minimal effective concentration in experiment [1] was 0.01 µM.

`COc1cc2c(c(OC)c1OC)C(=O)CC(c1ccc(F)cc1)O2` (centres unmarked) [Compound B5, 2-(4-Fluorophenyl)-5,6,7-dimethoxychroman-4-one]: in experiment [1], the minimal effective concentration stood at 0.1 µM.

`COc1cc2c(c(OC)c1OC)OC(c1ccc(F)cc1)CC2=O` (centres unmarked) [Compound B6, 2-(4-Fluorophenyl)-6,7,8-dimethoxychroman-4-one]: the minimal effective concentration in experiment [1] came to 100 µM.

Take `COc1ccc2c(c1)OC(c1ccc(F)cc1)CC2=O` (centres unmarked) [Compound B7, 2-(4-Fluorophenvl)-7-methoxvchroman-4-one]: the minimal effective concentration in experiment [1] came to 10 µM.

For the compound `COc1ccc2c(c1)OC(c1ccc(Cl)cc1)CC2=O` (centres unmarked) [Compound B8, 2-(4-Chlorophenyl)-7-methoxvchroman-4-one], the minimal effective concentration in experiment [1] was found to be 0.1 µM.

As to `C[C@@H](N)[C@H]1CC[C@H](C(=O)Nc2ccncc2)CC1` [Compound Y-27632, Y-27632, reference compound], the spheroid stiffness result with 13B2 hTERT breast CAFs is given as “active”; in the experiment with CAF03 glioblastoma CAFs, “active”; in experiment [2] it was “reduced the stiffness”; in experiment [3], “reduced the stiffness”; in experiment [4], “reduced the stiffness”; in experiment [5], “reduced the stiffness”.

Consider `Cc1ccc2c(c1)C(=O)C1(O)CCN(c3ccccc3)C1=N2` (centres unmarked) [blebbistatin, reference compound], for which the spheroid stiffness result in the experiment with 13B2 hTERT breast CAFs is “active”; in the experiment on CAF03 glioblastoma CAFs, “active”; in experiment [2], “reduced the stiffness”; in experiment [3], “reduced the stiffness”; in experiment [4], “reduced the stiffness”; in experiment [5] it was “reduced the stiffness”.

Turning to `C=C1[C@@H](C)[C@H]2[C@H](Cc3ccccc3)NC(=O)[C@]23[C@H](OC(C)=O)/C=C/[C@@](C)(O)C(=O)[C@@H](C)C/C=C/[C@H]3[C@@H]1O` [cytochalasin D, reference compound], the spheroid stiffness result with 13B2 hTERT breast CAFs was “active”; with CAF03 glioblastoma CAFs it was “active”; in experiment [2] it was “reduced the stiffness”; in experiment [3] it was “reduced the stiffness”; in experiment [4], “reduced the stiffness”; in experiment [5], “reduced the stiffness”.
